Results taken from the NIST ThermoML archive (doi:10.1021/je9005344).
Numbers after ± are expanded uncertainties.

Assay: xn = mol fraction of the nth substance listed
Settings: 101 kPa, Liquid; for speed of sound: Pulse-echo method; for mass density: Vibrating tube method

COCCO [2-methoxyethan-1-ol] + CCCCCCCCCCO
Settings | mass density, 293.15 K [kg/m3] | mass density, 298.15 K [kg/m3] | mass density, 303.15 K [kg/m3] | mass density, 308.15 K [kg/m3] | speed of sound, 293.15 K [m/s] | speed of sound, 298.15 K [m/s] | speed of sound, 303.15 K [m/s] | speed of sound, 308.15 K [m/s]
x1 = 0.0606 | 832.95 ± 0.23 | 829.505 ± 0.23 | 826.05 ± 0.23 | 822.58 ± 0.23 | 1393.1 ± 1.2 | 1375.9 ± 1.2 | 1359 ± 1.2 | 1342.2 ± 1.2
x1 = 0.1173 | 835.952 ± 0.23 | 832.457 ± 0.23 | 828.982 ± 0.23 | 825.482 ± 0.23 | 1389.5 ± 1.2 | 1372.4 ± 1.2 | 1355.4 ± 1.2 | 1338.6 ± 1.2
x1 = 0.1631 | 838.564 ± 0.23 | 835.06 ± 0.23 | 831.539 ± 0.23 | 828.008 ± 0.23 | 1386.6 ± 1.2 | 1369.5 ± 1.2 | 1352.6 ± 1.2 | 1335.8 ± 1.2
x1 = 0.1934 | 840.414 ± 0.23 | 836.878 ± 0.23 | 833.342 ± 0.23 | 829.786 ± 0.23 | 1384.7 ± 1.2 | 1367.5 ± 1.2 | 1350.6 ± 1.2 | 1333.8 ± 1.2
x1 = 0.251 | 844.262 ± 0.23 | 840.695 ± 0.23 | 837.111 ± 0.23 | 833.512 ± 0.23 | 1380.8 ± 1.2 | 1363.7 ± 1.2 | 1346.8 ± 1.2 | 1330 ± 1.2
x1 = 0.3025 | 847.887 ± 0.23 | 844.28 ± 0.23 | 840.662 ± 0.23 | 837.024 ± 0.23 | 1377.5 ± 1.2 | 1360.4 ± 1.2 | 1343.5 ± 1.2 | 1326.7 ± 1.2
x1 = 0.413 | 856.97 ± 0.23 | 853.268 ± 0.23 | 849.553 ± 0.23 | 845.819 ± 0.23 | 1370.2 ± 1.2 | 1353.1 ± 1.2 | 1336.2 ± 1.2 | 1319.4 ± 1.2
x1 = 0.517 | 867.321 ± 0.23 | 863.518 ± 0.23 | 859.697 ± 0.23 | 855.861 ± 0.23 | 1363.6 ± 1.2 | 1346.6 ± 1.2 | 1329.6 ± 1.2 | 1312.8 ± 1.2
x1 = 0.6285 | 880.912 ± 0.23 | 876.98 ± 0.23 | 873.028 ± 0.23 | 869.056 ± 0.23 | 1356.6 ± 1.2 | 1339.6 ± 1.2 | 1322.6 ± 1.2 | 1305.7 ± 1.2
x1 = 0.7087 | 892.252 ± 0.23 | 888.913 ± 0.23 | 884.854 ± 0.23 | 880.773 ± 0.23 | 1352.5 ± 1.2 | 1335.3 ± 1.2 | 1318.4 ± 1.2 | 1301.5 ± 1.2
x1 = 0.7965 | 909.015 ± 0.23 | 904.836 ± 0.23 | 900.644 ± 0.23 | 896.427 ± 0.23 | 1349.5 ± 1.2 | 1332.3 ± 1.2 | 1315.3 ± 1.2 | 1298.3 ± 1.2
x1 = 0.9382 | 944.534 ± 0.23 | 940.097 ± 0.23 | 935.63 ± 0.23 | 931.137 ± 0.23 | 1352.5 ± 1.2 | 1335.3 ± 1.2 | 1318.2 ± 1.2 | 1301.1 ± 1.2

COCCO [2-methoxyethan-1-ol] + CCCCCCCCO
Settings | mass density, 293.15 K [kg/m3] | mass density, 298.15 K [kg/m3] | mass density, 303.15 K [kg/m3] | mass density, 308.15 K [kg/m3] | speed of sound, 293.15 K [m/s] | speed of sound, 298.15 K [m/s] | speed of sound, 303.15 K [m/s] | speed of sound, 308.15 K [m/s]
x1 = 0.0535 | 828.636 ± 0.23 | 825.138 ± 0.23 | 821.625 ± 0.23 | 818.089 ± 0.23 | 1362 ± 1.2 | 1345 ± 1.2 | 1328.2 ± 1.2 | 1311.5 ± 1.2
x1 = 0.1073 | 832.242 ± 0.23 | 828.704 ± 0.23 | 825.153 ± 0.23 | 821.583 ± 0.23 | 1359.3 ± 1.2 | 1342.3 ± 1.2 | 1325.5 ± 1.2 | 1308.9 ± 1.2
x1 = 0.1407 | 834.668 ± 0.23 | 831.104 ± 0.23 | 827.528 ± 0.23 | 823.931 ± 0.23 | 1357.9 ± 1.2 | 1340.7 ± 1.2 | 1323.9 ± 1.2 | 1307.2 ± 1.2
x1 = 0.2002 | 839.135 ± 0.23 | 835.528 ± 0.23 | 831.905 ± 0.23 | 828.261 ± 0.23 | 1354.9 ± 1.2 | 1337.9 ± 1.2 | 1321.1 ± 1.2 | 1304.5 ± 1.2
x1 = 0.2659 | 844.444 ± 0.23 | 840.786 ± 0.23 | 837.111 ± 0.23 | 833.414 ± 0.23 | 1351.9 ± 1.2 | 1334.9 ± 1.2 | 1318.1 ± 1.2 | 1301.4 ± 1.2
x1 = 0.2973 | 847.294 ± 0.23 | 843.606 ± 0.23 | 839.904 ± 0.23 | 836.178 ± 0.23 | 1350.5 ± 1.2 | 1333.6 ± 1.2 | 1316.8 ± 1.2 | 1300.1 ± 1.2
x1 = 0.3559 | 852.613 ± 0.23 | 848.877 ± 0.23 | 845.122 ± 0.23 | 841.346 ± 0.23 | 1348 ± 1.2 | 1331.1 ± 1.2 | 1314.2 ± 1.2 | 1297.5 ± 1.2
x1 = 0.5233 | 870.97 ± 0.23 | 870.97 ± 0.23 | 863.148 ± 0.23 | 859.203 ± 0.23 | 1342.3 ± 1.2 | 1325.3 ± 1.2 | 1308.5 ± 1.2 | 1296.6 ± 1.2
x1 = 0.6059 | 881.954 ± 0.23 | 867.068 ± 0.23 | 873.942 ± 0.23 | 869.902 ± 0.23 | 1340.4 ± 1.2 | 1323.4 ± 1.2 | 1306.5 ± 1.2 | 1289.7 ± 1.2
x1 = 0.7126 | 898.662 ± 0.23 | 877.961 ± 0.23 | 890.382 ± 0.23 | 886.205 ± 0.23 | 1339.7 ± 1.2 | 1322.6 ± 1.2 | 1305.7 ± 1.2 | 1288.8 ± 1.2
x1 = 0.7903 | 912.569 ± 0.23 | 908.335 ± 0.24 | 904.076 ± 0.23 | 899.757 ± 0.23 | 1340.9 ± 1.2 | 1323.9 ± 1.2 | 1306.9 ± 1.2 | 1290 ± 1.2
x1 = 0.9202 | 942.675 ± 0.23 | 938.234 ± 0.23 | 933.772 ± 0.23 | 929.291 ± 0.23 | 1349.3 ± 1.2 | 1332.2 ± 1.2 | 1315 ± 1.2 | 1298 ± 1.2

COCCO [2-methoxyethan-1-ol] + CCCCCCO
Settings | mass density, 293.15 K [kg/m3] | mass density, 298.15 K [kg/m3] | mass density, 303.15 K [kg/m3] | mass density, 308.15 K [kg/m3] | speed of sound, 293.15 K [m/s] | speed of sound, 298.15 K [m/s] | speed of sound, 303.15 K [m/s] | speed of sound, 308.15 K [m/s]
x1 = 0.0538 | 822.792 ± 0.23 | 819.173 ± 0.23 | 815.536 ± 0.23 | 811.869 ± 0.24 | 1319.2 ± 1.2 | 1302.3 ± 1.2 | 1285.5 ± 1.2 | 1268.9 ± 1.2
x1 = 0.1042 | 828.127 ± 0.23 | 824.464 ± 0.23 | 820.781 ± 0.23 | 817.068 ± 0.23 | 1318.3 ± 1.2 | 1301.4 ± 1.2 | 1284.6 ± 1.2 | 1267.9 ± 1.2
x1 = 0.1509 | 831.771 ± 0.23 | 828.075 ± 0.23 | 824.358 ± 0.23 | 820.611 ± 0.23 | 1317.7 ± 1.2 | 1300.8 ± 1.2 | 1284 ± 1.2 | 1267.4 ± 1.2
x1 = 0.2055 | 837.788 ± 0.23 | 834.043 ± 0.23 | 830.27 ± 0.23 | 826.473 ± 0.23 | 1317.1 ± 1.2 | 1300.2 ± 1.2 | 1283.4 ± 1.2 | 1266.8 ± 1.2
x1 = 0.2405 | 841.087 ± 0.23 | 837.314 ± 0.23 | 833.515 ± 0.23 | 829.687 ± 0.23 | 1316.7 ± 1.2 | 1299.8 ± 1.2 | 1283.1 ± 1.2 | 1266.4 ± 1.2
x1 = 0.2987 | 847.639 ± 0.23 | 843.81 ± 0.23 | 839.961 ± 0.23 | 836.084 ± 0.23 | 1316.3 ± 1.2 | 1299.5 ± 1.2 | 1282.7 ± 1.2 | –
x1 = 0.4088 | 860.712 ± 0.23 | 856.785 ± 0.23 | 852.828 ± 0.23 | 848.853 ± 0.23 | 1317.3 ± 1.2 | 1300.5 ± 1.2 | 1283.6 ± 1.2 | 1266.9 ± 1.2
x1 = 0.5134 | 874.132 ± 0.23 | 870.1 ± 0.23 | 866.048 ± 0.23 | 861.965 ± 0.23 | 1318.6 ± 1.2 | 1301.7 ± 1.2 | 1284.8 ± 1.2 | 1268.1 ± 1.2
x1 = 0.5991 | 886.614 ± 0.23 | 882.495 ± 0.23 | 878.355 ± 0.23 | 874.185 ± 0.23 | 1321.2 ± 1.2 | 1304.2 ± 1.2 | 1287.3 ± 1.2 | 1270.6 ± 1.2
x1 = 0.6915 | 901.59 ± 0.23 | 897.37 ± 0.23 | 893.13 ± 0.23 | 888.857 ± 0.23 | 1325.9 ± 1.2 | 1308.8 ± 1.2 | 1291.9 ± 1.2 | 1275 ± 1.2
x1 = 0.805 | 922.045 ± 0.23 | 917.699 ± 0.23 | 913.334 ± 0.23 | 908.936 ± 0.23 | 1334.2 ± 1.2 | 1317.1 ± 1.2 | 1300.1 ± 1.2 | 1283.2 ± 1.2
x1 = 0.9039 | 942.54 ± 0.23 | 938.079 ± 0.23 | 933.591 ± 0.23 | 929.076 ± 0.23 | 1345 ± 1.2 | 1327.9 ± 1.2 | 1310.8 ± 1.2 | 1293.7 ± 1.2
